Source: patent US20240239790A1, “7-Morpholino-1,6-Naphthyridin-5-yl Derivatives and Pharmaceutical Compositions Thereof Useful as DNA-PK Inhibitor” (adMare Therapeutics Society, priority 2021, published 2024)
pEC50: −log10 of the molar value. Where two headings read alike, the source gives them in different places.

Columns and labels:
[1] = Pharmacokinetic study in male Beagle dogs (IV and PO), plasma; type: in vivo, dog; conditions: for AUC—% Extrap—obs / Cl_obs / Vz_obs / AUC(0-t) / half-life / AUC(0-inf) / Cmax: dog plasma; for F: dog; for AUC(0-t) / half-life / AUC(0-inf) / Cmax: male, Beagle; for AUC(0-inf): read-out: AUCINF—obs; for Cmax: read-out: Cmax (5 min)
Method: Pharmacokinetic studies were conducted to estimate plasma concentrations obtained after oral gavage (PO) and intravenous (IV) single administration of compounds administered to separate groups of male Beagle dogs. Three (3) dogs were administered a compound via the intravenous (IV) route at 3 mg/kg and 2.5 mL/kg, and plasma was collected at 12 timepoints over a 24-hour period. Following a 7 days washout period, the same dogs were administered the same compound via PO at 10 mg/kg and 5 mL/kg, and plasma was collected at 12 timepoints over a 48-hour period.
The in-vivo study plasma samples were analyzed using Ultra Performance Liquid Chromatography (UPLC) with tandem mass spectrometry (MS/MS) detection in multiple reaction monitoring (MRM) mode. A generic bioanalytical method involving plasma sample extraction and cleanup by protein precipitation with acetonitrile was used followed by UPLC-MS/MS analysis.
A brief example of a generic bioanalytical UPLC-MS/MS method used for analysis of compounds in the in-vivo study plasma samples is as follows. Plasma samples were spiked with internal standard prior to extraction and cleanup by protein precipitation with ice cold acetonitrile containing 0.1% (v/v) ammonium hydroxide at a ratio of 3:1 (solvent:plasma) and centrifuged at 18213 rcf for 15 minutes at 4° C. to pellet precipitates. Aliquots of supernatants were transferred to a 96-well plate and evaporated to dryness at 40° C. under a stream of nitrogen gas. Samples were reconstituted in 50:50 acetonitrile/10 mM ammonium acetate buffer pH 8, mixed thoroughly and analyzed using Ultra Performance Liquid Chromatography (UPLC) with tandem mass spectrometry (MS/MS) detection in multiple reaction monitoring (MRM) mode. Matrix-matched calibration standards and quality control (QC) samples were prepared in naïve C57Bl/6 mouse plasma. The UPLC column used was Waters Acquity UPLC BEH C18 1.7 um, 2.1 mm×50 mm (with guard column). The UPLC mobile phase consisted of: Mobile phase A: 10 mM ammonium acetate in Water pH 8, and Mobile phase B: Acetonitrile. Separation was accomplished with a linear gradient of 5% mobile phase B to 95% mobile phase B in 2 min, and a flow rate of 0.35 mL/min. The MS/MS data acquisition was accomplished using 3 MRM Transitions in ESI+ mode. Parent ion mass 508.37 m/z-to-Daughter ions (m/z) 117.05, 232.13 and 270.22. The quantitation of concentrations in test samples was achieved by matrix-matched calibration with normalization using an internal standard. Data acquisition and analysis were performed using Waters MassLynx software with TargetLynx application manager.
Estimation of PK parameters was performed using independent noncompartmental model method by PHOENIX WinNonlin software.

FaDu tumour xenograft = assay: Tumour Growth Delay, FaDu tumour xenograft-bearing animals, compound ± radiation (TGD-ER); type: in vivo; conditions: PO
Method: FaDu tumour xenograft-bearing animals were monitored for tumour growth and once average tumour size reached approximately 100-250 mm3, animals were assigned to treatment cohorts using stratified randomization. […]
For BID dosing regimens, at 8 h following the first injection, animals were again administered with test compound at the same dose as their previous administration. Animals were weighed and had tumours measured using calipers three times weekly until the endpoint of maximum tumour volume, 1000 mm3, was reached and animals were euthanized. Tumour volumes were calculated according to the equation L×W^2/2 with the length (mm) being the longer axis of the tumour; in the case that no tumour was palpable, tumour volumes were recorded as 0 mm^3.
Data were calculated as tumour growth normalized to day 0 measurements, with time to tumour doubling determined. Average time to tumour doubling for each group was used to determine a Tumour Growth Delay Enhancement Ratio (TGD-ER): the time to doubling for treatment groups were divided by the time to doubling for irradiation-alone groups to determine group-specific TGD-ER values, and these were assigned scores based on defined response ranges: values>2.5=A, 1-2.5=B, <1=C.

[2] = test system: pDNA-PK induction in FaDU tumour spheroids; assay: Multicellular tumour spheroid + radiation, pDNA-PK (ser2056) inhibition, immunohistochemical endpoint, FaDU; type: cell-based; conditions: Homo sapiens, 20 Gy
Method: Multicellular tumour spheroids determination of compound inhibition of pDNA-PK induction following radiation. Tumour spheroids were grown to approximately 0.5 mm in diameter and irradiated with 20 Gy in combination with inhibitor test compounds to determine their potency. Inhibitor concentration for 50% reduction in pDNA-PK induction (IC50) was determined via immunohistochemical staining in spheroid cryosections taken 2 hours following radiation. For cell survival endpoint 8 Gy radiation was used and 3 hours following radiation spheroids were dissociated, counted and plated for colony forming endpoint.
Spheroid+radiation pDNA-PK. Radiation: 20 Gy. Drug: serial dilution 5 or 10 μM down to 3.5 nM (11 wells). Spheroids: 3-6 spheroids per well (300-500 μm diameter). 20% 02 and 5% CO2. 96 well plate format. Endpoint: fluorescent immunostain pDNA-PK ser2056 and image on microscope. Analysis: determine EC50 concentrations that decreases pDNA-PK induction by 50% after irradiation.
Multicellular tumour spheroids were used to determine potency of test compounds in a 3D tissue environment using inhibition of pDNA-PK induction following radiation or cell survival as the endpoint. For the pDNA-PK endpoint HCT116 or FaDU tumour spheroids were grown to approximately 0.5 mm in diameter and irradiated with 20 Gy in combination with inhibitor test compounds to determine their potency. Experiments were carried out in 96 well plates containing 0.7 mls of MEM media containing 10% FBS and 10 mM glucose under 20% O2 & 5% CO2 at 37° C. Following dilution of compounds 1:1000 from DMSO stocks, compounds were serially diluted from 10 μM down to 3.5 nM and 5-10 spheroids added. 96 well plates were constantly stirred to avoid spheroids settling during the course of the experiment. The inhibitor concentration for 50% reduction in pDNA-PK induction (EC50) was determined via immunohistochemical staining in spheroid cryosections taken 2 hours following radiation using anti-pDNA-PK (ser 2056) and fixed immediately in formalin following sectioning. For cell survival endpoint 8 Gy radiation was used and, 3 hours following radiation, spheroids were dissociated, counted and plated for colony forming endpoint. Data presented in the table compound potency as EC50 [μM].

[3] = 2 hours following radiation, 20% O2, Example 9 Study 2, read-out: Spheroid Cell line: FaDU Immunohistochemical endpoint pDNA-PK inhibition EC50
[4] = 2 h, spheroids, 20% O2, Example 8, read-out: Cell line: FaDU Immunohistochemical endpoint pDNA-PK inhibition EC50

SMILES | AUC—% Extrap—obs ([1]; IV, 3 mg/kg) [%] | Cl_obs ([1]; IV, 3 mg/kg) [mL/min/kg] | Vz_obs ([1]; IV, 3 mg/kg) [L/kg] | AUC—% Extrap—obs ([1]; PO, 10 mg/kg) [%] | Cl_obs ([1]; PO, 10 mg/kg) [mL/min/kg] | Vz_obs ([1]; PO, 10 mg/kg) [L/kg] | F ([1]; PO, 10 mg/kg) [%] | AUC(0-t) ([1]; IV, 3 mg/kg) [ng·h/mL] | half-life ([1]; IV, 3 mg/kg) [h] | AUC(0-inf) ([1]; IV, 3 mg/kg) [ng·h/mL] | Cmax ([1]; IV, 3 mg/kg) [ng/mL] | AUC(0-t) ([1]; PO, 10 mg/kg) [ng·h/mL] | half-life ([1]; PO, 10 mg/kg) [h] | AUC(0-inf) ([1]; PO, 10 mg/kg) [ng·h/mL] | Cmax ([1]; PO, 10 mg/kg) [ng/mL] | pEC50 [2, 3] | pEC50 [2, 4] | TGD-ER Range Score (FaDu tumour xenograft; 30 mpk BID + 10 Gy) | TGD-ER Range Score (FaDu tumour xenograft; (30 mpk + 2 Gy) Q5D) | TGD-ER Range Score (FaDu tumour xenograft; (30 mpk) Q5D) | also measured
CN1CCN(CCOc2cnc(N[C@H]3CC[C@@H](Oc4nc(N5CCOCC5)cc5ncccc45)CC3)nc2)CC1 [Compound 69, 5-(2-(4-Methylpiperazin-1-yl)ethoxy)-N-((1s,4s)-4-((7-morpholino-1,6-naphthyridin-5-yl)oxy)cyclohexyl)pyrimidin-2-amine] | 23.94 | 32.4562 | 37.41197 | 9.05 | 27.6643 | 32.69379 | 143 | 1180 | 13.3 | 1560 | 397 | 5640 | 13.8 | 6220 | 291 | – | – | B (1-2.5=B) | A (values>2.5=A) | C (<1=C) | TGD-ER Range Score (FaDu tumour xenograft; 30 mpk + @4 h 10 Gy): C (<1=C); TGD-ER Range Score (FaDu tumour xenograft; 100 mpk + @4 h 10 Gy): B (1-2.5=B)
O=C(NO)c1cnc2cc(N3CCOCC3)nc(O[C@H]3CC[C@@H](n4ccnc4)CC3)c2c1 [Compound 172, 5-(((1s,4s)-4-(1H-imidazol-1-yl)cyclohexyl)oxy)-N-hydroxy-7-morpholino-1,6-naphthyridine-3-carboxamide] | – | – | – | – | – | – | – | – | – | – | – | – | – | – | – | 5.00 to 6.00 | 5.00 to 6.00 | – | – | – | –
CN(C)C(=O)Cn1ccc2nc(N[C@H]3CC[C@@H](Oc4nc(N5CCOCC5)cc5ncccc45)CC3)ncc21 [Compound 86, N,N-Dimethyl-2-(2-(((1s,4s)-4-((7-morpholino-1,6-naphthyridin-5-yl)oxy)cyclohexyl)amino)-5H-pyrrolo[3,2-d]pyrimidin-5-yl)acetamide] | 5.80 | 28.2873 | 28.9956 | 0.51 | 28.6397 | 6.54871 | 105 | 1730 | 13.1 | 1850 | 1730 | 6090 | 2.62 | 6130 | 1540 | – | – | B (1-2.5=B) | A (values>2.5=A) | B (1-2.5=B) | –
O=C(COc1cnc(N[C@H]2CC[C@@H](Oc3nc(N4CCOCC4)cc4ncccc34)CC2)nc1)N1CCC1 [Compound 75, 1-(Azetidin-1-yl)-2-((2-(((1s,4s)-4-((7-morpholino-1,6-naphthyridin-5-yl)oxy)cyclohexyl)amino)pyrimidin-5-yl)oxy)ethan-1-one] | – | – | – | – | – | – | – | – | – | – | – | – | – | – | – | – | – | B (1-2.5=B) | – | – | –

Now from value to compound, other results behind:

AUC—% Extrap—obs ([1]; IV, 3 mg/kg) [%] | Cl_obs ([1]; IV, 3 mg/kg) [mL/min/kg] | Vz_obs ([1]; IV, 3 mg/kg) [L/kg] | AUC—% Extrap—obs ([1]; PO, 10 mg/kg) [%] | Cl_obs ([1]; PO, 10 mg/kg) [mL/min/kg] | Vz_obs ([1]; PO, 10 mg/kg) [L/kg] | F ([1]; PO, 10 mg/kg) [%] | AUC(0-t) ([1]; IV, 3 mg/kg) [ng·h/mL] | half-life ([1]; IV, 3 mg/kg) [h] | AUC(0-inf) ([1]; IV, 3 mg/kg) [ng·h/mL] | Cmax ([1]; IV, 3 mg/kg) [ng/mL] | AUC(0-t) ([1]; PO, 10 mg/kg) [ng·h/mL] | half-life ([1]; PO, 10 mg/kg) [h] | AUC(0-inf) ([1]; PO, 10 mg/kg) [ng·h/mL] | Cmax ([1]; PO, 10 mg/kg) [ng/mL] | pEC50 [2, 3] | pEC50 [2, 4] | SMILES | TGD-ER Range Score (FaDu tumour xenograft; 30 mpk BID + 10 Gy) | TGD-ER Range Score (FaDu tumour xenograft; (30 mpk + 2 Gy) Q5D) | TGD-ER Range Score (FaDu tumour xenograft; (30 mpk) Q5D) | also measured
– | – | – | – | – | – | – | – | – | – | – | – | – | – | – | 6.30 to 8.00 | 6.30 to 8.00 | CN(C)CCOc1cnc(N[C@H]2CC[C@@H](Oc3nc(N4CCOCC4)cc4ncccc34)CC2)nc1 [Compound 64, 5-(2-(Dimethylamino)ethoxy)-N-((1s,4s)-4-((7-morpholino-1,6-naphthyridin-5-yl)oxy)cyclohexyl)pyrimidin-2-amine] | – | – | – | –
– | – | – | – | – | – | – | – | – | – | – | – | – | – | – | 6.30 to 8.00 | 6.30 to 8.00 | CN(C)C(=O)COc1cnc(N[C@H]2CC[C@@H](Oc3nc(N4CCOCC4)cc4ncccc34)CC2)nc1 [Compound 54, N,N-Dimethyl-2-((2-(((1s,4s)-4-((7-morpholino-1,6-naphthyridin-5-yl)oxy)cyclohexyl)amino)pyrimidin-5-yl)oxy)acetamide] | – | – | – | TGD-ER Range Score (FaDu tumour xenograft; 10 mpk + 10 Gy): B (1-2.5=B); TGD-ER Range Score (FaDu tumour xenograft; 30 mpk + 10 Gy): A (values>2.5=A); TGD-ER Range Score (FaDu tumour xenograft; 100 mpk + 10 Gy): B (1-2.5=B)
0.79 | 14.338 | 4.48058 | 0.78 | 35.8008 | 11.52897 | 46 | 3480 | 3.64 | 3500 | 3700 | 5300 | 4.39 | 5340 | 1070 | – | – | O=C(COc1cnc(N[C@H]2CC[C@@H](Oc3nc(N4CCOCC4)cc4ncccc34)CC2)nc1)N1CCOCC1 [Compound 61, 1-Morpholino-2-((2-(((1s,4s)-4-((7-morpholino-1,6-naphthyridin-5-yl)oxy)cyclohexyl)amino)pyrimidin-5-yl)oxy)ethan-1-one] | – | A (values>2.5=A) | C (<1=C) | –
